{
  "source": "patent US20200131270A1",
  "about": "“COMBINATION USE OF INHIBITOR TARGETING PD-1/PD-L1 AND COX-2 INHIBITOR” (priority 2017, published 2020)",
  "key": {"canine PBMCs": {"system": "canine PBMCs", "assay": "Cytokine production from canine PBMCs stimulated with SEB and anti-CD28 (ELISA)", "type": "cell-based", "conditions": "PGE2 2.5 μM; SEB + anti-CD28, 3 days"}, "[1]": {"system": "PBMCs derived from uninfected cattle", "assay": "PBMC culture under anti-CD3/anti-CD28 stimulation: cell proliferation (CFSE) and cytokine production (ELISA)", "conditions": "3 days"}, "[2]": {"system": "PBMCs derived from uninfected cattle", "assay": "mRNA expression in bovine PBMCs (real-time PCR)", "type": "cell-based", "procedure": "Using the synthesized cDNA as a template, real-time PCR was performed with LightCycler480 System II (Roche) in a 10 μl reaction solution containing SYBR Premix DimerEraser (TaKaRa) and 3 pmol each of the primers specific to individual genes. Then, changes in expression levels of individual genes were observed. After 45 cycles of thermal denaturation, annealing and extension, the temperature was raised from 65° C. to 95° C. at 0.1° C./sec for melting curve analysis. The melting temperatures of amplified products were measured to confirm specificity. For each sample, expression levels of genes ACTB and GAPDH were quantified as internal standards. […] Then, real-time PCR was performed using PDL1 specific primers."}, "BLV provirus": {"system": "BLV provirus", "type": "cell-based, cattle"}, "[3]": {"system": "PBMCs derived from uninfected cattle", "assay": "PD-L1 protein expression in bovine PBMCs (flow cytometry)", "type": "cell-based", "conditions": "PGE2 added, 24 hours"}, "[4]": {"conditions": "PGE2 25 nM, 250 nM and 2,500 nM"}},
  "data": [
    {"smiles": "CCCCC[C@H](O)/C=C/[C@H]1[C@H](O)CC(=O)[C@@H]1C/C=C\\CCCC(=O)O", "note": "[PGE2, prostaglandin E2]", "values": [
      {"measurement": "IFN-γ production from canine PBMCs", "setting": "canine PBMCs", "result": "significantly decreased"},
      {"measurement": "IL-2 production from canine PBMCs", "setting": "canine PBMCs", "result": "significantly decreased"},
      {"measurement": "IFN-γ production", "setting": "[1]; [4]", "result": "significantly inhibited"},
      {"measurement": "proliferation of CD4^+ cells", "setting": "[1]; [4]", "result": "significantly inhibited"},
      {"measurement": "proliferation of CD8^+ cells", "setting": "[1]; [4]", "result": "significantly inhibited"},
      {"measurement": "TNF-α production", "setting": "[1]; PGE2 2,500 nM", "result": "significantly inhibited"},
      {"measurement": "expression level of Foxp3", "setting": "[2]; PGE2 2,500 nM, 3 days", "result": "significantly increased"},
      {"measurement": "expression level of IFNγ", "setting": "[2]; PGE2 2,500 nM, 3 days", "result": "significantly decreased"},
      {"measurement": "expression level of IL-2", "setting": "[2]; PGE2 2,500 nM, 3 days", "result": "significantly decreased"},
      {"measurement": "expression level of IL-10", "setting": "[2]; PGE2 2,500 nM, 3 days", "result": "significantly increased"},
      {"measurement": "expression level of STAT3", "setting": "[2]; PGE2 2,500 nM, 3 days", "result": "significantly increased"},
      {"measurement": "expression level of TGFβ1", "setting": "[2]; PGE2 2,500 nM, 3 days", "result": "significantly increased"},
      {"measurement": "expression level of TNFα", "setting": "[2]; PGE2 2,500 nM, 3 days", "result": "significantly decreased"},
      {"measurement": "expression of PD-L1 mRNA", "setting": "[2]; PGE2 added, 24 hours", "result": "significantly increased"},
      {"measurement": "BLV provirus load in PBMCs", "setting": "BLV provirus", "result": "increase significantly"},
      {"measurement": "expression of PD-L1 protein", "setting": "[3]", "result": "significantly increased"}
    ]}
  ]
}
